The subject of data set [1] is U373MG cells. The data set can be described thus: Growth inhibition of U373MG cells expressing intracellular or secreted hCE1mut6 by CPT-11. It is filed as cell-based. The following applies: Homo sapiens, U373 MG, read-out: IC50 for CPT-11. How it is done:
(§1) Experiments were also performed to determine whether cells expressing a secreted form of hCElm6 (SEQ ID NO:16) produced media that had CE activity.
(§2) Growth Inhibition Assays.

For data set [2] the following is noted: CPT-11 administered to humans; cited from earlier work.
Data set [3] has as its system rCE (rabbit liver carboxylesterase), wild type, SEQ ID NO:2. The following applies: CPT-11 hydrolysis; cited from earlier work.
Data set [4] addresses T1, hiCE (human intestinal carboxylesterase) (Homo sapiens, UniProt O00748).
T1 sequence (O00748 27-559): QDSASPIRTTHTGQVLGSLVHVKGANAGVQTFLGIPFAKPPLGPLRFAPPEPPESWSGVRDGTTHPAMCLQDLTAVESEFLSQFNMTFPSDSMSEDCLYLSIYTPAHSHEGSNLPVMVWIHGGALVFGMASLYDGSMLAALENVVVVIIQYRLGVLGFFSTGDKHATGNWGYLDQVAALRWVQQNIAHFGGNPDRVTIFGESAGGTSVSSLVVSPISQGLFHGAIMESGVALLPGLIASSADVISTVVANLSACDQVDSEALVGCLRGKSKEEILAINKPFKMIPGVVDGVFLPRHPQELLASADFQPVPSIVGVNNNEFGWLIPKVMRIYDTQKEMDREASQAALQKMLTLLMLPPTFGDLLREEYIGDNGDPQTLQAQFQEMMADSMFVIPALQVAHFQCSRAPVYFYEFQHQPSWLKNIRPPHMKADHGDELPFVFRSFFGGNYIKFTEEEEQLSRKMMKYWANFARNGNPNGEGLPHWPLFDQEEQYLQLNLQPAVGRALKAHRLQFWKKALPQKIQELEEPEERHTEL
The data set can be described thus: Kinetics of CPT-11 hydrolysis by purified hiCE. It is filed as biochemical. The source says:
(§3) These experiments determined the Km, Vmax, kcat and kcat/Km values for the different enzymes.
(§4) Protein Purification. […] For hiCE, an alternative purification procedure was developed using DEAE chromatography and elution with a pH/salt gradient.
(§5) Determination of Kinetic Parameters for Substrate Hydrolysis.

Data set [5] deals with U373MG cells. The data set can be described thus: Growth inhibition by CPT-11 of U373MG cells. It is filed as cell-based, human. How it is done: Experiments were also performed in human brain tumor cells (U373MG) where the growth of the cells was examined in cells that expressed the mutant form of the human CE enzyme.
as §1
(§6) Transfection of Cell Lines. Transient transfection of Cos7 cells was achieved by electroporation (Potter, et al. 1998. Cancer Res. 52:2646-2651). For the generation of stable cell lines, cDNAs were ligated into pIRESneo and U373MG cells were electroporated under similar conditions. Transfectants were selected in media containing 400 μg/ml of G418. Since the CE cDNA was linked via an internal ribosome entry sequence (IRES) to the neomycin gene, selection of individual G418-resistant clones was not necessary.
(§7) Construction of Adenovirus. Replication-deficient adenovirus expressing hCElm6 or rCE were constructed using standard protocols (Wierdl, et al. 2001. Cancer Res. 61:5078-5082). Multiplicity of infection (moi) was defined as the number of plaques produced in 1×10^6 293 cells in a total volume of 1 ml of media after incubation with virus for 1 hour.
as §2

The conditions of data set [6]: mice, within the first hour of dosing; cited from earlier work.
Data set [7] concerns hCE1 (human liver carboxylesterase), wild type, SEQ ID NO:1. The following applies: CPT-11 hydrolysis; cited from earlier work.
Data set [8] addresses T2, hCE1 variant hCE1m6 (hCE1mut6; L362M, M363L, K459R, F448Y, Q449R, L358I, S364G, Q362 insertion), SEQ ID NO:3 (Homo sapiens, UniProt P23141, F449Y/K460R/L358I/L363M/M364L/Q450R/S365G).
T2 sequence (P23141 18-567 L358I/L363M/M364L/S365G/F449Y/Q450R/K460R): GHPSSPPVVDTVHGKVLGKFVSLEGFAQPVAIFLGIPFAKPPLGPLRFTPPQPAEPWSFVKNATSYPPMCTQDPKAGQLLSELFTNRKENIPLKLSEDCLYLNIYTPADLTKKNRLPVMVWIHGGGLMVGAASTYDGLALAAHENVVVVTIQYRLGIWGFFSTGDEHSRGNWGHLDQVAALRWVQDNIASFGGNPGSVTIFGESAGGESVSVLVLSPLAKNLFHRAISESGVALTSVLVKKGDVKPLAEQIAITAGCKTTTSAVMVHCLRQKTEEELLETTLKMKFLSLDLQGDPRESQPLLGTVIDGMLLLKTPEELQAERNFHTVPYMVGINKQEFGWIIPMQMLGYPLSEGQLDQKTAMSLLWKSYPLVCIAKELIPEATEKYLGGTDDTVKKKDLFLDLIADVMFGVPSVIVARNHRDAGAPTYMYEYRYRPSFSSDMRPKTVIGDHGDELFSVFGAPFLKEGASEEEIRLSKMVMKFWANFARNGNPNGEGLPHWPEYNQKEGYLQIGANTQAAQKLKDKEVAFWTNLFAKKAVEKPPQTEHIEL
The data set can be described thus: Kinetics of CPT-11 hydrolysis by purified hCE1m6. It is filed as biochemical.
Source text: as §3, §4, §5

The subject of another data set is COS7 cells. The data set can be described thus: Growth inhibition of transiently transfected Cos7 cells by CPT-11. Type of data set: cell-based, African green monkey. The following applies: Chlorocebus sabaeus. The procedure: as §6, §2
In another data set the test system is SK-N-As cells. The data set can be described thus: Growth inhibition of adenovirus-transduced SK-N-As cells by CPT-11. It is filed as cell-based. The following applies: Homo sapiens. How it is done: as §7, §2
A further data set concerns Rh30 cells. The data set can be described thus: Growth inhibition of adenovirus-transduced Rh30 cells by CPT-11. Type of data set: cell-based. The following applies: Homo sapiens. The procedure:
as §7, §2

The conditions of data set [9]: patients; cited from earlier work.
Another data set relates to topoisomerase I. The following applies: cited from earlier work.
Data set [10] is described as follows: CE activity (o-NPA) in human tumor cell lines expressing CE after plasmid transfection or adenoviral transduction. Type of data set: biochemical.
Source text: […], it was observed that expression of hiCE following plasmid-mediated transfection was frequently lower than that seen with rCE or […]. […] Since expression of the transgene from this expression vector is co-regulated with the neo gene via an IRES sequence, selection with similar concentrations of G418 should result in cell lines that express approximately equal levels of recombinant protein. However, the average levels of CE activity in U373hiCE, U373hCE1 and U373hCE1m6 cells were 287.6±76.6, 1077.1±77.5, and 466.5±52.6 nmoles/min/mg, respectively.
Carboxylesterase Assays. CE activity was determined using a spectrophotometric assay with 3 mM o-nitrophenyl acetate (o-NPA) as a substrate (Potter, et al. 1998. Cancer Res. 52:2646-2651; Wierdl, et al. 2001. Cancer Res. 61:5078-5082; Beaufay, et al. 1974. J. Cell Biol. 61:188-200). Data were expressed as nmoles o-nitrophenol produced per minute per milligram of protein. To correct for differences in CE expression within transfected cells, the enzyme activity values were corrected for the level of immuno-reactive CE protein as determined from western analyses.
as §6, with “necessary. Routinely, whole cell sonicates obtained from these pooled populations of cells contained 200-500 nmoles/min/mg of CE activity.” for “necessary.”
as §7

Substrate in data set [11]: CCc1c2c(nc3ccc(OC(=O)N4CCC(N5CCCCC5)CC4)cc13)-c1cc3c(c(=O)n1C2)COC(=O)[C@]3(O)CC
The experiment in a line: purified protein, by the assay type. The following applies: other: CPT-11 hydrolysis, hiCE.

The nature of data set [12]: In vitro stability of purified CE stored at room temperature in 50 mM Hepes. Type of data set: physicochemical. The following applies: purified protein in 50 mM Hepes pH7.4, room temperature. How it is done:
Enzymes were aliquoted in 50 mM Hepes, stored at 20° C. and CE activities were determined at various time intervals, up to 11 weeks. Data are expressed as the amount of active CE remaining as compared to day 0.
Therefore, the loss of CE activity was evaluated in preparations of these proteins, as well as hCElm6 that had been stored at room temperature. In these studies, purified protein was aliquoted in 50 mM Hepes pH7.4, and enzyme activity was determined over a period of 12 weeks.

A short description of data set [13]: Kinetic parameters for CPT-11 hydrolysis by purified recombinant CEs. It is filed as biochemical. The following applies: hCE1 and rCE values rest on cited data. The procedure:
To directly compare the abilities of the mammalian CEs to hydrolyze CPT-11, a series of biochemical studies were carried out using the purified proteins in vitro. These experiments determined the Km, Vmax, kcat and kcat/Km values for the different enzymes.
as §4, §5

“Also recorded” adds a separate entry of the source. Where two headings read alike, the source gives them in different places.

In the case of `CCc1c2c(nc3ccc(OC(=O)N4CCC(N5CCCCC5)CC4)cc13)-c1cc3c(c(=O)n1C2)COC(=O)[C@]3(O)CC` [CPT-11, 7-ethyl-10-[4-(1-piperidino)-1-piperidino]carbonyloxycamptothecin], the IC50 in the data set on U373MG cells [1] was 7.08 µM; in the data set with U373MG cells [5] (Homo sapiens, U373 MG, read-out: CPT-11 IC50, U373IRES cells (pIRESneo, no enzyme expressed)), 24 µM; in the data set with COS7 cells (COS-7, read-out: IC50 (growth inhibition), cells expressing hCE1mut6), 12 to 20 µM; with COS7 cells (COS-7, read-out: IC50 (growth inhibition), cells expressing rCE) it was 12 to 20 µM; in the data set on COS7 cells (COS-7, read-out: IC50 (growth inhibition), cells expressing wild-type hCE1) it was 77.1 µM; in the data set on SK-N-As cells (read-out: CPT-11 IC50, AdCMVhCE1m6, hCE1m6), 0.5 µM. Moreover, the half-maximal inhibitory concentration (IC50) turned out to be 0.6 µM with SK-N-As cells (read-out: CPT-11 IC50, AdCMVrCE, rCE); 31.7 µM with SK-N-As cells (read-out: CPT-11 IC50, AdVC, no enzyme); 0.002 µM with SK-N-As cells (read-out: IC50, SK-N-As, transduced cells); 2 µM with Rh30 cells (Rh30, read-out: CPT-11 IC50, AdCMVhCE1m6, hCE1m6); 3.4 µM in the data set on Rh30 cells (Rh30, read-out: CPT-11 IC50, AdCMVrCE, rCE); 64.3 µM in the data set on Rh30 cells (Rh30, read-out: CPT-11 IC50, AdVC, no enzyme). Besides, in the data set with Rh30 cells (Rh30, read-out: IC50, Rh30, transduced cells), the IC50 was determined as 0.0006 µM. Besides, the “fraction of CPT-11 converted to SN-38” value in data set [2] is listed as “less than 5%”. Besides, the Km in data set [3] was 6.2 ± 0.63 µM; in [7] it was 82.8 ± 9.6 µM. Moreover, the Vmax was 18 ± 0.9 nmol/min/mg in [3], 1.49 ± 0.04 nmol/min/mg in [4], 0.36 ± 0.017 nmol/min/mg in data set [7] and 2.11 ± 0.06 nmol/min/mg in [8]. Besides, the “fraction of CPT-11 hydrolyzed to SN-38” value in data set [6] is listed as “greater than 50%”. In addition, the dose-limiting toxicity entry in data set [9] is “myelosuppression and secretory diarrhea limit the amount of prodrug; also recorded: myelosuppression and secretory diarrhea limit the amount of drug”.

For `CCc1c2c(nc3ccc(O)cc13)-c1cc3c(c(=O)n1C2)COC(=O)[C@]3(O)CC` [SN-38, 7-ethyl-10-hydroxy-camptothecin], in the data set with topoisomerase I, the “inhibition of topoisomerase I” value is recorded as “potent inhibitor of topoisomerase I”.

B1: hiCE (human intestinal carboxylesterase) (Homo sapiens) (protein)
chain: T1 sequence (O00748 27-559)
In the case of B1, the “average levels of CE activity” value in [10] (U373MG cells stably transfected with pIRESneo constructs, monitored over an extended time period) came to 287.6 ± 76.6 nmol/min/mg. Besides, the CE Activity in [10] (± SD, U373MG cells stably transfected (pIRESneo) expressing the enzyme) is 408.2 ± 5.6 nmol/min/mg. Moreover, the Km in data set [11] worked out at 3.35 ± 0.34 µM. Also, in the data set on U373MG cells [5] (U373MG cells expressing the labelled enzyme), the “sensitization of cells to CPT-11” value was “sensitized”. The “time to loss of 50% of CE activity” value in data set [12] is reported as roughly 30 days. In addition, the “Ratio kcat/Km as compared to hCE1” value in data set [13] is given as 91.

Source of the values: patent publication US9492510B2, “Composition and method for inhibiting tumor cell growth” (St. Jude Children's Research Hospital, priority 2006, dated 2016).
